From patent US10093938B2, “Regulated switch for gene expression” (The Johns Hopkins University, priority 2014, dated 2018) come the findings set out here.

Common to all, as to assay type: cell-based, Saccharomyces cerevisiae
Experiment [1] deals with cam-TA. As to the kind of experiment: camphor-Off switch, GFP reporter (flow cytometry) in strain camG-TA. How it is done:
To evaluate the performance of the system, we used GFP as a reporter.
However, another strain camG-TA that was constructed by introducing the […] expression cassette into the cam-TA strain produced significant amounts of GFP (FIG. 3C). From this, we conclude that cam-TA binds to camO and can activate the transcription of the reporter gene gfp.
Subsequently, the kinetics of the system was investigated using the camG-TA strain.
Cellular fluorescence from GFP was determined using a LSRII flow cytometer (Becton Dickinson, Franklin Lakes, N.J.) equipped with 488-nm argon ion laser (blue laser) and a 530/30-filter. All samples were suspended in sterile water, and 10,000 cells were analyzed per sample. Data acquisition and analysis were performed using FACSDiva software (Becton Dickinson) and FlowJo (Tree Star, Ashland, Oreg.).

The test system of experiment [2] is cam-TA. As to the kind of experiment: camphor-Off system with ADE2 reporter, growth on SC-Ade. From the text: FIG. 4. […] The cells were 10-fold diluted in across each row.
Another gene ADE2 (SEQ ID No. 10) was used to further evaluate the camphor-Off system. Specifically, we investigated availability of the system to complement the adenine-auxotrophy in a camphor-dependent manner. […] On the other hand, another strain camA-TA, which had cam-TA differently from camA-EmV, grew in […] SC-Ade media (FIG. 4B). […] The reversion frequency is approximately 10^−3. The behavior of each strain was thoroughly consistent with the schematic model of the camphor-system (FIG. 2).

The subject of experiment [3] is cam-TA. Conditions: BY-TeCaOFF. From the text:
(§1) FIG. 6. Independent regulation of fluorescent reporters, RFP and GFP, with camphor-Off and Tet-Off systems. (A) pSIB859 can be used for integrating the camphor-Off system at a single transformation. Its derivative plasmid pSIB872 carries mCherry as a reporter. (B) Plasmid pSIB498 for the Tet-Off system. Its derivative pSIB527 carries gfp as a reporter. (C)-(F) Strain BY-TeCaOFF carries both pSIB872 and pSIB527. Cell images in SC medium (C), SC with camphor (D), SC with Dox (E), and SC with camphor and Dox. The top, middle, and bottom rows represent images of RFP, GFP, and DIC, respectively. Strain BY-TeCaOFF was grown for 1 day in SC medium with the indicated compounds.
(§2) The experiments in this section were performed to examine whether the camphor-Off system was orthogonal/compatible with the Tet-Off system in a yeast strain. Firstly, we developed new two acceptor vectors: one was used for the camphor-Off switch and the other was the Tet-Off switch. […]
(§3) Cells were viewed with an Axioskop-2 microscope (Carl Zeiss, Oberkochen, Germany) equipped with an X-cite120 light source (ExFo, Ontario, Canada) and a fluorescence filter set. A 100× objective and AxioVision software were used to capture fluorescence and differential interference contrast (DIC) images.

In a further experiment the target is T1, tTA (TetR-VP16 fusion) (Escherichia coli, UniProt P04483).
T1 construct: expressed in transfected cells; host or cells: Saccharomyces cerevisiae strain BY-TeCaOFF (integrated pSIB527, CMV promoter)
As to the kind of experiment: Orthogonality: Tet-Off GFP reporter in strain BY-TeCaOFF (microscopy). Conditions: 25 μM, 1 day in SC medium.
Source text: as §1, §2, §3

Sequence of cam-TA (as listed by the source): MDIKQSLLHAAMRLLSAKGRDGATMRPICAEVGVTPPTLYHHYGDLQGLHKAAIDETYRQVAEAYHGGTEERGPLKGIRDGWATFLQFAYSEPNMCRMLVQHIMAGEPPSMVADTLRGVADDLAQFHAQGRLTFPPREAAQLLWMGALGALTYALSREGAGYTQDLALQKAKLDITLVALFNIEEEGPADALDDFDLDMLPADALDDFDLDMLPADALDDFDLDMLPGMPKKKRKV

Take D-Camphor: the “effective concentration for the camphor-Off system” value in the experiment on cam-TA [1] (GFP reporter, camG-TA strain) was determined as 25 µM. Also, in the experiment with cam-TA [1] (camG-TA strain in SC medium, camPr-gfp reporter), the “camphor concentration in the presence of which the GFP signal drastically decreased” value is ≥ 25 µM. In addition, the “period over which GFP intensity went to almost the same level as that of BY4741” value in the experiment with cam-TA [1] (camG-TA strain in the presence of camphor) stood at 7 h. Further, the “growth of strain camA-TA on SC-Ade media that contained camphor” value with cam-TA [2] (100 μM camphor, 1 day at 30° C., camPr-ADE2) is reported as “hardly proliferated at all”. In addition, in the experiment on cam-TA [2] (camA-TA on SC-Ade media containing camphor), the reversion frequency entry is on record as “approximately 10^−3”. In addition, the “corresponding reporter protein (mCherry, camphor-Off) on addition of the drug” value in the experiment with cam-TA [3] (25 μM, 1 day in SC medium) is given as “drastic decrease”. In the experiment on cam-TA [3] (camphor and Dox 25 μM each), the “expression of mCherry reporter when both camphor and Dox were supplied” value is on record as “repressed”. Moreover, the “the other fluorescence (GFP, Tet-Off) on addition of camphor alone” value on tTA (TetR-VP16 fusion) is on record as “detected robustly”.
